Test system: breast cancer patients
Assay: Prognostic relevance of ESR1 alterations in breast cancer treated with Tamoxifen (tissue microarray FISH/IHC with survival analysis)
Type: in vivo, human
Excerpt: Contingency table analysis and Chi-square tests were used to study the relationship between histologic tumor type, grade, stage and gene amplification. Survival curves were plotted according to Kaplan-Meier. A log rank test was applied to examine the relationship between gene amplifications and patient survival.
2.1 The general results obtained by CGH were verified by fluorescence in situ hybridization (FISH) using existing tissue microarrays. A breast cancer Prognosis Tissue Microarray containing more than 2517 breast tissues was analyzed. […]
2.3 The TMA sections were treated according to the Paraffin Pretreatment Reagent Kit protocol (Vysis, Downers Grove, Ill.) before hybridization. […] In a second more refined analysis FISH signal numbers of the ESR1 gene and centromere 6 were counted in each tissue spot. […]
3.1 Immunohistochemical detection of the estrogen receptor alpha protein was performed using the above described TMAs and antibody NCL-L-ER-6F11 as a primary antibody (Novocastra, Newcastle, UK). […] In brief, intensity of the estrogen receptor staining was recorded in a 4-step scale (0-3) and the fraction of ER positive tumor cells in a 5-step (1-5) scale. […]

For CC/C(=C(\c1ccccc1)c1ccc(OCCN(C)C)cc1)c1ccccc1 [Tamoxifen], the “prognosis of Tamoxifen treated patients with ESR1 amplification” value (Tamoxifen monotherapy after surgery, ESR1 amplified versus ER positive by IHC without ESR1 amplification, p<0.0001 (FIG. 4)) was “significantly better” and the “overall survival of patients with ESR1-amplified tumors under anti-estrogen therapy with Tamoxifen” value (compared to patients with tumors not exhibiting ESR1 amplification (FIG. 4)) was “significantly increased”.

Source: patent US8101352B2, “Detection of ESR1 amplification in breast cancer” (Universitatsklinikum Hamburg-Eppendorf, priority 2006, dated 2012)
